Reference: patent publication US10662151B1, “Process for preparing DTEA HCl” (AMSA, Inc., priority 2017, dated 2020)

Assay: Water solubility of DTEA HCl (pure and crude) at different temperatures
Assay type: physicochemical
Conditions: FIG. 2
Excerpt: FIG. 2 graphically represents the water solubility of pure DTEA HCl.

- solids formation (15 wt % solution in water): forms solids well above RT
- solubility in water (at 32° F.): essentially insoluble
- solubility in water (at 56° F., no LTS): less than 1 wt %
- solubility in water (at 67° F., no LTS): 11 wt %
SMILES: CCCCCCCCCCSCCN.Cl [DTEA HCl, n-decylthioethylamine HCl]
